{"source": "patent US20260294906A1", "about": "“TREATING PSORIASIS USING A SMALL MOLECULE INHIBITOR OF TUMOR NECROSIS FACTOR ALPHA” (SANOFI, priority 2023, published 2026)", "key": {"[1]": {"test_system": "patients with mild to moderate psoriasis", "assay": "Clinical response by Psoriasis Area and Severity Index (PASI) score, phase 1 placebo-controlled study", "assay_type": "in vivo, human", "details": "for LSm (±SE) % improvement from baseline in total PASI score: 200 mg BID oral, fed; for LSm (±SE) % improvement from baseline in total PASI score / ΔLSm (±SE) (Compound 1 minus placebo) in % improvement from baseline in total PASI score: MMRM", "protocol": "(§1) A double-blind, randomized, placebo-controlled phase 1 study was carried out in participants with mild to moderate psoriasis. Study participants were randomized to 200 mg twice a day (BID) of Compound 1 or placebo in 2:1 ratio (approximately 24 in the treatment group and 12 in the placebo group). The study comprised an up to 4-week screening period, and a 4-week treatment period with Compound 1 or placebo. An end-of-study visit was carried out 10±3 days after the last investigational medicinal product (IMP) administration.\nThe primary objective of the study was to assess the safety, tolerability, and clinical efficacy of Compound 1 at 200 mg BID via oral administration. Also evaluated was the clinical effect of Compound 1 as compared to placebo on the percent change in PASI and TLS scores from baseline to week 2 and week 4. The percent change in PASI score from baseline to week 4 was determined. TLS score was also assessed over the same time period. Also assessed was the effect of Compound 1 on biomarkers of psoriasis. Blood samples collected at predetermined time points were processed to quantify serum levels of biomarkers, including interleukin (IL)-17A, IL-17F, and IL-22 by high sensitivity methods. IL-17A, IL-17F and IL-22 are the main cytokines released by Th17 cells. Plasma levels of Compound 1 were measured to assess pharmacokinetics in the study population.\n(§2) Two study interventions were used, Compound 1 and placebo. The Compound 1 intervention comprised 4× tablets of Compound 1 50 mg twice daily, i.e. 200 mg BID, for 4 weeks. The placebo intervention was 4× tablets of placebo twice daily for 4 weeks. Tablets were administered orally.\n(§3) The interventions were used in two arms of the study. Arm 1 was the experimental arm and it involved participants receiving 200 mg of Compound BID for 4 weeks under fed conditions. Arm 2 was the placebo arm and it involved participants receiving the matching placebo tablets for 4 weeks under fed conditions.\nThe PASI scoring system evaluates psoriasis based on the body surface area (BSA) involvement and morphological characteristics of the plaques (see, e.g., EMA Guidelines on clinical investigation of medicinal products indicated for the treatment of psoriasis, Nov. 18, 2004). BSA estimation was performed using the ‘palm’ (i.e., the subject's flat hand and thumb together, fingers not included). The palm thus defined represented 1% of the total BSA. The PASI combines assessments of four body areas: head (h, 10%), upper extremities (u, 20%), trunk (t, 30%) and lower extremities (1, 40%). Using the palm to assess BSA (as described above) the proportion of skin affected by psoriasis in each area was given a numerical score (A) representing the proportion involved: 1 (0 to 9%); 2 (10 to 29%); 3 (30 to 49%); 4 (50 to 69%); 5 (70 to 89%) and 6 (90 to 100%). Within each area the severity of three signs, erythema (E), thickness/induration (I), and desquamation/scaling (D), was each assessed on a five-point scale: 0, none; 1, mild; 2, moderate; 3, severe; 4, very severe. The PASI ranges from 0 to 72 and is calculated using the following formula: […]\nThe PASI score was assessed at baseline, 2 weeks and 4 weeks. Table 4 below presents the LSm (±SE) for each treatment and ΔLSm (Compound 1 minus placebo) with 90% confidence interval (CI) in percentage improvement from baseline in the total PASI score at week 2 and week 4.\nThe results in Table 4 were obtained using the MMRM.\nTable 5 below presents the mean (±SEM) percentage improvements from baseline in the total PASI score at week 2 and week 4 in the patient population with PASI<10 (mild) or PASI≥[…] at baseline.\nThe results in Table 5 come from standard descriptive analysis, ^(1)N=3, ^(2)N=15."}, "[2]": {"test_system": "patients with mild to moderate psoriasis", "assay": "Clinical response by static Investigator's Global Assessment (sIGA) score, phase 1 placebo-controlled study", "assay_type": "in vivo, human", "details": "200 mg BID", "protocol": "as §1, §2, §3\nThe sIGA employed in this study is a six-point ordinal scale used to assess the global severity of disease over the body as a whole, as measured by the overall degree of induration, scaling and erythema of a subject's psoriatic lesions. For statistical analysis, the scale was assigned scores of 0 to 5, for ‘clear’ to ‘very severe’, respectively.\nScoring was accorded to a subject on a scale of 0 to 5 for each of erythema, induration, and scaling; a mean sIGA score was calculated as the mean average of those individual scores and this was translated into an overall sIGA score (an integer between 0 and 5) as described in the tables below:\nThe sIGA score was assessed as described herein."}}, "note": "“And” between values parts separate entries of the source, which are not always exact repeats. Identical values can stand only once. “Also recorded” adds a separate entry of the source."}
{"compound": "CN1C(=O)c2cccc(OC(F)F)c2[C@H]2C[C@@H]1c1nc3ccc(-c4cnc(C5(N)CCC5)nc4)cc3n12", "note": "[Compound 1, (7R,14R)-11-[2-(1-aminocyclobutyl)pyrimidin-5-yl]-1-(difluoromethoxy)-6-methyl-6,7-dihydro-7,14-methanobenzimidazo[1,2-b][2,5]benzodiazocin-5(14H)-one]", "values": [{"measurement": "Mean (±SEM) % improvement from baseline in total PASI score", "setting": "[1]; PASI < 10 (mild) population, week 2, 200 mg BID, N = 16, SEM 3.98", "result": "21.24% and 21.2%"}, {"measurement": "Mean (±SEM) % improvement from baseline in total PASI score", "setting": "[1]; PASI < 10 (mild) population, week 4, 200 mg BID, N = 15, SEM 5.34", "result": "33.8% and 33.83%"}, {"measurement": "Mean (±SEM) % improvement from baseline in total PASI score", "setting": "[1]; PASI ≥ 10 (moderate) population, week 2, 200 mg BID, N = 9", "result": "9.3% and 9.31% and 9.3 (3.60) %"}, {"measurement": "Mean (±SEM) % improvement from baseline in total PASI score", "setting": "[1]; PASI ≥ 10 (moderate) population, week 4, 200 mg BID, N = 9", "result": "33.2% and 33.19% and 33.2 (4.03) %"}, {"measurement": "improvement in PASI score (in words)", "setting": "[1]; after 4 weeks of treatment", "result": "clinically meaningful"}, {"measurement": "improvement in psoriasis severity / clinical efficacy (in words)", "setting": "[1]; compared to placebo, 4-week treatment, 200 mg BID", "result": "rapid and statistically significant improvement in psoriasis severity compared to placebo as early as week 2; also recorded: consistent clinical efficacy in a 4-week treatment period; also recorded: clinically effective, with sustained clinical response; also recorded: effective in improving clinical parameters in human patients"}, {"measurement": "LSm (±SE) % improvement from baseline in total PASI score", "setting": "[1]; week 2, vs placebo 4.12%, p=0.005", "result": "17.73% and 17.73 (2.75) %"}, {"measurement": "ΔLSm (±SE) (Compound 1 minus placebo) in % improvement from baseline in total PASI score", "setting": "[1]; week 2, 200 mg BID, 90% CI 5.28 to 21.94", "result": "13.61% and 13.61 (4.92) %"}, {"measurement": "LSm (±SE) % improvement from baseline in total PASI score", "setting": "[1]; week 4, vs placebo 15.71%, p=0.009", "result": "35.09% and 35.09 (4.47) %"}, {"measurement": "ΔLSm (±SE) (Compound 1 minus placebo) in % improvement from baseline in total PASI score", "setting": "[1]; week 4, 200 mg BID, 90% CI 6.28 to 32.48", "result": "19.4% and 19.38% and 19.38 (7.75) %"}, {"measurement": "mean reduction in total PASI score from baseline", "setting": "[1]; week 4, FIG. 2, placebo around 1.25 points", "result": "around 3.0 points"}, {"measurement": "change in sIGA score (in words)", "setting": "[2]; compared with placebo", "result": "clinically important change in sIGA score after 4 weeks of treatment; also recorded: a higher percentage of patients receiving Compound 1 improved from ‘moderate’ disease at baseline, to ‘mild’ or ‘almost clear’ at week 2 and week 4"}, {"measurement": "% of subjects with no change in sIGA from baseline", "setting": "[2]; week 2", "result": 68.0, "unit": "%"}, {"measurement": "% of subjects with sIGA change from baseline of −1", "setting": "[2]; week 2", "result": 32.0, "unit": "%"}, {"measurement": "Number of subjects with no change in sIGA from baseline", "setting": "[2]; week 2", "result": 17}, {"measurement": "Number of subjects with sIGA change from baseline of +1", "setting": "[2]; week 2", "result": 0}, {"measurement": "Number of subjects with sIGA change from baseline of −1", "setting": "[2]; week 2", "result": 8}, {"measurement": "% of subjects with no change in sIGA from baseline", "setting": "[2]; week 4", "result": 38.5, "unit": "%"}, {"measurement": "% of subjects with sIGA change from baseline of +1", "setting": "[2]; week 4", "result": 4.2, "unit": "%"}, {"measurement": "Number of subjects with no change in sIGA from baseline", "setting": "[2]; week 4", "result": 9}, {"measurement": "Number of subjects with sIGA change from baseline of +1", "setting": "[2]; week 4", "result": 1}, {"measurement": "Number of subjects with sIGA change from baseline of −1", "setting": "[2]; week 4", "result": 14}, {"measurement": "% of subjects with sIGA change from baseline of −1 (improvement by at least 1 severity level)", "setting": "[2]; week 4, placebo 0%", "result": 58.3, "unit": "%"}]}
